We go through 24 compounds from patent US12084436B2, “Heterocyclic compound” (Takeda Pharmaceutical Company Limited, priority 2019, dated 2024).

For this assay, the target named is T1, HDAC6 enzyme (Homo sapiens, UniProt Q9UBN7).
T1 construct: prepared by transducing full length HDAC6 gene into Sf-9 insect cells; GST; purchased SignalChem; host or cells: Sf-9 insect cells
T1 sequence (Q9UBN7 1-1215): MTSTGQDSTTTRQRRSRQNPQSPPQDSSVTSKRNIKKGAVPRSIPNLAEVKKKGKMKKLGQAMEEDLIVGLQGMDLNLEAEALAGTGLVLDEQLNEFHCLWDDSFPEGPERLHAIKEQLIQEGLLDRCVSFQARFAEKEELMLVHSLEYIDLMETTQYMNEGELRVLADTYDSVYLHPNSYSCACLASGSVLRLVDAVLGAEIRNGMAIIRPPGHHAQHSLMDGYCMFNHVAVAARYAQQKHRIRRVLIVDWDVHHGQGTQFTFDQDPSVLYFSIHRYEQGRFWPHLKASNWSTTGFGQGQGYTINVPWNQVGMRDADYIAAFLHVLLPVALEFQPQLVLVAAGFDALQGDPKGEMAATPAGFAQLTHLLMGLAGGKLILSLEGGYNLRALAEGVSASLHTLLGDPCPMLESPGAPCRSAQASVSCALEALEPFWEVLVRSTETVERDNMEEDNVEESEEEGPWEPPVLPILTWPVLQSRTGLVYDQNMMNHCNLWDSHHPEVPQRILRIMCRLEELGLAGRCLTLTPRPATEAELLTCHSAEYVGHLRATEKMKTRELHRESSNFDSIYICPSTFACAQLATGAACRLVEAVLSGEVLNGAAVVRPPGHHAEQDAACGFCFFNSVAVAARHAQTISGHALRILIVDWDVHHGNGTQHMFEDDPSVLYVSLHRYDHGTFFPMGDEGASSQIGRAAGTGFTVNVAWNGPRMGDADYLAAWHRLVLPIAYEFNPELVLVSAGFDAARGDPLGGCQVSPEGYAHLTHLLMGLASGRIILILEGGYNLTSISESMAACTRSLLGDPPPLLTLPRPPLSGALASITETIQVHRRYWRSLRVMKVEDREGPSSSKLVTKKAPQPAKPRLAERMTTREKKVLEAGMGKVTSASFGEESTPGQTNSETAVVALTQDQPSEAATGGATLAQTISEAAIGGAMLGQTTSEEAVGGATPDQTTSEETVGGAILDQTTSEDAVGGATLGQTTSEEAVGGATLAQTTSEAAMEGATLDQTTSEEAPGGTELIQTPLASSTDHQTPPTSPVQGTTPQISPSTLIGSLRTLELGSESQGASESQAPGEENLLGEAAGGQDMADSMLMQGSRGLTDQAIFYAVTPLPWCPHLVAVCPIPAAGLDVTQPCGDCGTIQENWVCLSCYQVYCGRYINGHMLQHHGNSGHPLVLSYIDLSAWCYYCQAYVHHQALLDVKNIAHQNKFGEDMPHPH
The assay can be described thus: HDAC6 enzyme inhibitory assay (HDAC-Glo I/II Assay kit, luminescence). The assay is classed as biochemical. To be noted: 10 μM test compound; wells without enzyme = 100% inhibition; read-out: HDAC6 inhibitory rate (%) (10 μM). How it is done: HDAC6 Enzyme Inhibitory Assay
HDAC6 enzyme prepared by transducing full length HDAC6 gene into Sf-9 insect cells and purifying by GST affinity column were purchased from SignalChem. Using this enzyme, HDAC6 enzyme inhibitory activities of the compound of the present invention were evaluated. Enzymes were used after preserved at −70° C. HDAC6 enzyme inhibitory activity of the compound of the present invention was measured using HDAC-Glo™ I/II Assay kit (Promega) according to the following experimental method. The test compound diluted with assay buffer (24 mM Tris-HCl (pH 7.5), 1 mM MgCl2, 0.35 mM KCl, 135 mM NaCl, 0.6 mM Glutathione, 0.01% Tween-20) was added to a 384-well plate by each 2 μL. Then, HDAC6 enzyme solution diluted with assay buffer was added thereto by each 4 μL, and the plate was incubated at room temperature for 60 min. After incubated, HDAC substrate-Developer solution prepared according to Promega protocol attached to the assay kit was added to the 384-well plate by each 2 μL, and the enzyme reaction was started. After reacting at room temperature for 20 min, luminescence level was measured using plate reader Envision (PerkinElmer). The inhibitory activity of each compound of Example was calculated as a relative activity value when luminescence level in wells without enzyme is considered as 100% inhibition.
As for `O=C1NN(c2ccc(F)c(Cl)c2)Cc2ncc(-c3nnc(C(F)F)o3)cc21` [Example 35b, 7-(3-chloro-4-fluorophenyl)-3-[5-(difluoromethyl)-1,3,4-oxadiazol-2-yl]-7,8-dihydropyrido[2,3-d]pyridazin-5(6H)-one], the inhibition at 10 µM was determined as 100%.

For `CC(NN1Cc2ccc(-c3nnc(C(F)F)o3)cc2C1=O)c1ccc(F)cc1` (stereo not drawn) [Example 22c, 6-[5-(difluoromethyl)-1,3,4-oxadiazol-2-yl]-2-{[1-(4-fluorophenyl)ethyl]amino}-2,3-dihydro-1H-isoindol-1-one], the inhibition at 10 µM came out at 100%.

For the compound `C[C@@]1(c2ccc(F)cc2)Cc2ncc(-c3nnc(C(F)F)o3)cc2C(=O)N1CC(F)F` [Example 54b, (7S)-6-(2,2-difluoroethyl)-3-[5-(difluoromethyl)-1,3,4-oxadiazol-2-yl]-7-(4-fluorophenyl)-7-methyl-7,8-dihydro-1,6-naphthyridin-5(6H)-one], the inhibition at 10 µM is 75%.

Take `O=C(CC(F)(F)F)N(Cc1ccc(F)cc1)N1Cc2ccc(-c3nnc(C(F)F)o3)cc2C1=O` [Example 14c, N-{6-[5-(difluoromethyl)-1,3,4-oxadiazol-2-yl]-1-oxo-1,3-dihydro-2H-isoindol-2-yl}-3,3,3-trifluoro-N-[(4-fluorophenyl)methyl]propanamide]: the inhibition at 10 µM was 100%.

Take `CN(Cc1ccc(F)c(F)c1)N1Cc2ccc(-c3nnc(C(F)F)o3)cc2C1=O` [Example 40c, 6-[5-(difluoromethyl)-1,3,4-oxadiazol-2-yl]-2-{[(3,4-difluorophenyl)methyl](methyl)amino}-2,3-dihydro-1H-isoindol-1-one]: the inhibition at 10 µM came to 101%.

For the compound `FC(F)c1nnc(-c2ccnc(-c3ncc(Cl)n3Cc3ccccn3)c2)o1` [Example 38a, 2-[5-chloro-1-[(pyridin-2-yl)methyl]-1H-imidazol-2-yl}-4-[5-(difluoromethyl)-1,3,4-oxadiazol-2-yl]pyridine], the inhibition at 10 µM is 98%.

For `FC(F)c1nnc(-c2ccnc(-c3nccn3Cc3cncc(Cl)c3)c2)o1` [Example 93a, 2-{1-[(5-chloropyridin-3-yl)methyl]-1H-imidazol-2-yl}-4-[5-(difluoromethyl)-1,3,4-oxadiazol-2-yl]pyridine], the inhibition at 10 µM was determined as 100%.

On to `Cc1nc(Cn2ccnc2-c2cc(F)cc(-c3nnc(C(F)F)o3)c2)sc1C` [Example 65a, 2-(difluoromethyl)-5-(3-{1-[(4,5-dimethyl-1,3-thiazol-2-yl)methyl]-1H-imidazol-2-yl}-5-fluorophenyl)-1,3,4-oxadiazole], for which the inhibition at 10 µM is 100%.

In the case of `O=C1c2cc(-c3nnc(C(F)F)o3)ccc2CN(c2ccc(F)cc2)N1CC(F)F` [Example 48b, 2-(2,2-difluoroethyl)-7-[5-(difluoromethyl)-1,3,4-oxadiazol-2-yl]-3-(4-fluorophenyl)-3,4-dihydrophthalazin-1(2H)-one], the inhibition at 10 µM was found to be 101%.

Turning to `CN(C)c1ccc(CN(C)N2Cc3ccc(-c4nnc(C(F)F)o4)cc3C2=O)cc1` [Example 54c, 6-[5-(difluoromethyl)-1,3,4-oxadiazol-2-yl]-2-[{[4-(dimethylamino)phenyl]methyl} (methyl)amino]-2,3-dihydro-1H-isoindol-1-one], the inhibition at 10 µM came to 97%.

Turning to `Cc1nc(Cn2ccnc2-c2cc(F)cc(-c3nnc(C(F)F)o3)c2)no1` [Example 55a, 3-[(2-{3-[5-(difluoromethyl)-1,3,4-oxadiazol-2-yl]-5-fluorophenyl}-1H-imidazol-1-yl)methyl]-5-methyl-1,2,4-oxadiazole], the inhibition at 10 µM is 97%.

Take `Cc1ccc(COc2cccnc2-c2cc(F)cc(-c3nnc(C(F)F)o3)c2)cc1` [Example 9a]: the inhibition at 10 µM stood at 79%.

As for `Fc1cc(-c2nnc(C(F)F)o2)cc(-c2nccn2Cc2ccc(Cl)cc2)c1` [Example 22a, 2-(3-{1-[(4-chlorophenyl)methyl]-1H-imidazol-2-yl}-5-fluorophenyl)-5-(difluoromethyl)-1,3,4-oxadiazole], the inhibition at 10 µM is 99%.

On to `Fc1cc(-c2nnc(C(F)F)o2)cc(-c2nccn2CC2CCOCC2)c1` [Example 30a, 2-(difluoromethyl)-5-(3-fluoro-5-{1-[(oxan-4-yl)methyl]-1H-imidazol-2-yl}phenyl)-1,3,4-oxadiazole], for which the inhibition at 10 µM amounted to 98%.

Regarding `Cn1ccc(OC2CCC(F)(F)CC2)c(-c2cc(-c3nnc(C(F)F)o3)ccn2)c1=O` [Example 88a, 4′-[(4,4-difluorocyclohexyl)oxy]-4-[5-(difluoromethyl)-1,3,4-oxadiazol-2-yl]-1′-methyl[2,3′-bipyridine]-2′(1′H)-one], the inhibition at 10 µM turned out to be 100%.

As for `O=C1c2cc(-c3nnc(C(F)F)o3)ccc2CN1N(CC1CCOCC1)CC1CCOCC1` [Example 18c, 2-{bis[(oxan-4-yl)methyl]amino}-6-[5-(difluoromethyl)-1,3,4-oxadiazol-2-yl]-2,3-dihydro-1H-isoindol-1-one], the inhibition at 10 µM amounted to 99%.

On to `CN(Cc1cc(Cl)ccc1O)N1Cc2ccc(-c3nnc(C(F)F)o3)cc2C1=O` [Example 42c, 2-{[(5-chloro-2-hydroxyphenyl)methyl](methyl)amino}-6-[5-(difluoromethyl)-1,3,4-oxadiazol-2-yl]-2,3-dihydro-1H-isoindol-1-one], for which the inhibition at 10 µM was found to be 98%.

Consider `CN(Cc1cccc(C(F)F)c1)N1Cc2ccc(-c3nnc(C(F)F)o3)cc2C1=O` [Example 56c, 6-[5-(difluoromethyl)-1,3,4-oxadiazol-2-yl]-2-[{[3-(difluoromethyl)phenyl]methyl} (methyl)amino]-2,3-dihydro-1H-isoindol-1-one], for which the inhibition at 10 µM is 99%.

As for `O=C(Cn1ccnc1-c1cc(F)cc(-c2nnc(C(F)F)o2)c1)N1CCCC1` [Example 33a, 2-(2-{3-[5-(difluoromethyl)-1,3,4-oxadiazol-2-yl]-5-fluorophenyl}-1H-imidazol-1-yl)-1-(pyrrolidin-1-yl)ethan-1-one], the inhibition at 10 µM came to 86%.

On to `N#Cc1cc(Cn2ccnc2-c2cc(-c3nnc(C(F)F)o3)ccn2)ccc1F` [Example 1a, 5-[(2-{4-[5-(difluoromethyl)-1,3,4-oxadiazol-2-yl]pyridin-2-yl}-1H-imidazol-1-yl)methyl]-2-fluorobenzonitrile], for which the inhibition at 10 µM worked out at 100%.

Turning to `FC(F)c1nnc(-c2ccnc(-c3nc(Cl)cn3Cc3ccccn3)c2)o1` [Example 39a, 2-{4-chloro-1-[(pyridin-2-yl)methyl]-1H-imidazol-2-yl}-4-[5-(difluoromethyl)-1,3,4-oxadiazol-2-yl]pyridine], the inhibition at 10 µM worked out at 98%.

Consider `O=C1c2cc(-c3nnc(C(F)F)o3)ccc2CN1NCCc1ccc(F)cc1F` [Example 19c, 6-[5-(difluoromethyl)-1,3,4-oxadiazol-2-yl]-2-{[2-(2,4-difluorophenyl)ethyl]amino}-2,3-dihydro-1H-isoindol-1-one], for which the inhibition at 10 µM was 98%.

On to `O=C1c2cc(-c3nnc(C(F)F)o3)cnc2CN1N(Cc1ccc(F)cc1)CC1CCOCC1` [Example 71c, 3-[5-(difluoromethyl)-1,3,4-oxadiazol-2-yl]-6-{[(4-fluorophenyl)methyl][(oxan-4-yl)methyl]amino}-6,7-dihydro-5H-pyrrolo[3,4-b]pyridin-5-one], for which the inhibition at 10 µM was found to be 100%.

Take `Fc1cc(-c2nnc(C(F)F)o2)cc(-c2ncccc2OC2CCOCC2)c1` [Example 8a, 2-{3-[5-(difluoromethyl)-1,3,4-oxadiazol-2-yl]-5-fluorophenyl}-3-[(oxan-4-yl)oxy]pyridine]: the inhibition at 10 µM was 98%.
